Consider 1 compound from US7538094B2, “Composition containing ribavirin and use thereof” (Three Rivers Pharmacueticals, LLC, priority 2002, dated 2009).

Data set [1] is described as follows: Angle of repose (flowability). The format is physicochemical. Particulars: sample passed through 12 mesh screen, funnel with 1 cm aperture. An excerpt: Another measure of flowability can be made by determining a material's angle of repose. The angle of repose is a standard test in the pharmaceutical industry to establish the relative flowability of a solid pharmaceutical formulation. (See, e.g., Lachman et al., “The Theory and Practice of Industrial Pharmacy” 3rd Ed. (1986) pp 67-68). A greater angle of repose means a less flowable material. Remington's Pharmaceuticals Sciences lists the angle of repose for glass beads (a high flowing material) at 23 degrees and for granular limestone (a poor flowing material) at 64 degrees. Cohesive materials can be as high as 90 degrees. (See Remington's Pharmaceutical Sciences, 19th Ed. Mack Publishing Co., (1995) p. 1607).
Angle of repose data was collected for ribavirin composition made in accordance with Examples 1 and 3 and compared to bulk ribavirin and a commercial ribavirin product. In determining the angle of repose for the compositions of the present invention and comparative examples thereto, a sample was passed through a 12 mesh screen to break up agglomerates. […] The funnel height was then measured, as well as the diameter (width) of the sample. […] The angle of repose for a given sample was calculated by taking the inverse tangent of the following equation: Tan (a)=2H/W, where H is the height of the funnel from the paper and W is the averaged diameter of the poured sample at its base.

The conditions of data set [2]: cited from earlier work.
The conditions of data set [3]: cited from earlier work. This is another data set of the same source.

Molecules are shown by their SMILES.

Take `NC(=O)c1ncn([C@@H]2O[C@H](CO)[C@@H](O)[C@H]2O)n1` [ribavirin, 1-β-D-ribofuranosyl-1H-1,2,4-triazole-3-carboxamide]: the Repose Angle, Trial 1 in data set [1] (Trial 1) came out at 44 °. In data set [1] (Trial 2), this compound came in with a Repose Angle, Trial 2 of 42 °. In addition, the bioavailability with food entry in data set [2] (administered with a high fat meal) is given as “increase significantly”. Also, the biological half-life entry in data set [2] (in vivo, after multiple oral dosing (steady state)) is “ca. 298 hours”. The “bioavailability (AUC) versus dose” value in data set [2] (oral administration, Physician's Desk Reference) was “increases linearly with the dose”. Further, the “maximum concentration of the drug in vivo (Cmax) versus dose” value in data set [2] (oral administration, curvilinear, reaching an asymptote, Physician's Desk Reference) is “does not increase linearly with the dose”. For the same compound, the solubility result in data set [3] is “water-soluble”.
